Measured values: patent publication US20150290192A1, “INHIBITORS OF BRUTON'S TYROSINE KINASE” (HOFFMANN-LA ROCHE INC., priority 2012, published 2015)
Read-outs that look alike come from different tables or passages of the source. Marks after values point to notes of the source that are not given here.

Columns and labels:
[1] = biological target: Btk kinase (Homo sapiens, UniProt Q06187); assay: Btk Biacore binding assay
Method: Analyses were performed on a Biacore T-100. Btk kinase was avi-tagged and co-expressed in baculovirus with biotin ligase to generate single site biotinylated Btk (Avidity, LLC). Biotinylated target was captured on Biacore streptavidin sensor chips (Series S Sensor Chip SA) at densities of ˜10000 resonance units (1 ru˜1 pg protein/mm2). […] Compounds were injected for 100 seconds association time and dissociation was followed for 20 min.

[2] = Pharmacokinetics in dog; format: in vivo
[3] = Pharmacokinetics in rat; format: in vivo
[4] = tested on: mice, poly I:C-induced airway neutrophilia; assay: Poly I:C induced steroid-resistant airway inflammation (neutrophilia); format: in vivo, mouse; settings: for % reduction in airway neutrophilia: Inhaled
Method: Compound 1's effects on airway inflammation induced by a synthetic form of double-stranded RNA, polyinosine-polycytidylic acid (Poly I:C) were assessed. […] To perform this experiment, mice (male; BALB/c; 7-9 weeks of age) were anesthetized with isoflurane and intranasally (i.n.) administered saline or poly I:C ([…]) and airway inflammation was evaluated 24 hours later as previously described [Harris et al., 2012, Mucosal Immunology]. Compound 1 inhibited poly I:C-induced airway neutrophilia in a dose-dependent (Table 6). These reductions in neutrophils were consistent with reductions in the levels of neutrophil chemoattractants in the lavage fluid (Table 4).

[5] = biological target: Bruton's Tyrosine Kinase (Homo sapiens, UniProt Q06187); assay: Bruton's Tyrosine Kinase (BTK) inhibition TR-FRET competition assay; format: binding
Sequence of Bruton's Tyrosine Kinase (Q06187 whole entry): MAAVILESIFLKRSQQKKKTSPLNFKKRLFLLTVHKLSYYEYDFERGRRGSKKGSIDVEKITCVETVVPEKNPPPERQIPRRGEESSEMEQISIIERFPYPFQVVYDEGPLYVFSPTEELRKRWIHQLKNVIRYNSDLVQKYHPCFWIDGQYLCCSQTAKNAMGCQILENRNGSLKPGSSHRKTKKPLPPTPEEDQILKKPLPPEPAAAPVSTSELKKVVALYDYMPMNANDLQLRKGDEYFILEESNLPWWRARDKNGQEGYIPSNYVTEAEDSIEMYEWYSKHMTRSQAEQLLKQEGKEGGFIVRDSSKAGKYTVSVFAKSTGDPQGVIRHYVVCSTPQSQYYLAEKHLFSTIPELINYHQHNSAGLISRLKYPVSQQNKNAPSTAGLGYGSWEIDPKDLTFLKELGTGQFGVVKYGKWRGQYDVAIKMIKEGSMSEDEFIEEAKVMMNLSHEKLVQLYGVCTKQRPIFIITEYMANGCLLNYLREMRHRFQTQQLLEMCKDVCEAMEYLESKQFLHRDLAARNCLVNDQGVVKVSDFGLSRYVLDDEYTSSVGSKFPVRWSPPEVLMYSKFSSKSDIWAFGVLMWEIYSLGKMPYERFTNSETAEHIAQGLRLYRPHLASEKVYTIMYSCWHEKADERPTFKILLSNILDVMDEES
Method: This BTK competition assay measures compound potency (IC50) for the inactivated state of Bruton's Tyrosine Kinase using FRET (Firster/Fluorescence Resonance Energy Transfer) technology. The BTK-Eu complex was incubated on ice one hour prior to use at a starting concentration of 50 nM BTK-Bioease™: 10 nM Eu-streptavidin (Perkin-Elmer Catalog#AD0062). The assay buffer consisted of 20 mM HEPES (pH 7.15), 0.1 mM DTT, 10 mM MgCl2, 0.5 mg/ml BSA with 3% Kinase Stabilizer (Fremont Biosolutions, Catalog #STB-K02). After 1 h, the reaction mixture from above was diluted 10 fold in assay buffer to make 5 nM BTK: InM Eu-Streptavidin complex (donor fluorophore). 18 l of a mixture of 0.11 nM BTK-Eu and 0.11 nM Kinase Tracer 178 (Invitrogen, Catalog #PV5593,) with BTK-Eu alone as no negative control, was then dispensed into 384-well flat bottom plates (Greiner, 784076). Compounds to be tested in assay were prepared as 10× concentrations and serial dilution in half-log increments was performed in DMSO so as to generate 10 point curves. To initiate the FRET reaction, compounds prepared as 10× stock in DMSO was added to the plates and the plates were incubated 18-24 h at 14° C.
After the incubation the plates were read on a BMG Pherastar Fluorescent plate reader (or equivalent) and used to measure the emission energy from the europium donor fluorophore (620 nm emission) and the FRET (665 nm emission). The negative control well values were averaged to obtain the mean minimum. The positive “no inhibitor” control wells were averaged to obtain the mean maximum. Percent of maximal FRET was calculated using following equation:
% max FRET=100×[(FSRcmpd−FSRmean min)/(FSRmean max−FSRmean min)]
where FSR=FRET Signal ratio. % Max FRET curves were plotted in Activity Base (Excel) and the IC50(%), hill slope, z′ and % CV were determined. The mean IC50 and standard deviation will be derived from duplicate curves (singlet inhibition curves from two independent dilutions) using Microsoft Excel.

[6] = Pharmacokinetics in cynomolgus monkey; format: in vivo; settings: Cyno
[7] = Pharmacokinetics in mouse; format: in vivo
[8] = tested on: OVA sensitized and challenged mice, allergen-induced bronchoconstriction; assay: Ovalbumin-induced allergic airway disease: allergen-induced bronchoconstriction
[9] = tested on: human B cells (BCR activation); assay: Human B cell antibody production after BCR activation; format: cell-based; settings: for IC50: Homo sapiens, B-cell, N = 3 donors
Method: Human total B cells were enriched with RosetteSep human B cell enrichment cocktail (#28921, Vancouver, BC) from buffy coat leukocyte packs (New York Blood Center) following manufacturer's protocol. Enriched B cell purity (around 80%) was checked by FACS with CD19+ staining. B cells were suspended (0.1 million cells/well/100 μl) in RPMI-1640 based conditional medium (50 ng/ml IL-2, 50 ng/ml IL-10, and […] anti-IgD for the activation of B cells to produce IgG/IgM; 10 ng/ml IL-4, 10 ng/ml IL-10, 25 ng/ml IL-21, and […] anti-CD40 for the activation of B cells to produce IgE) together with Compound 1 (1 nM-10 μM). Cells were cultured for 10 days (for IgG/IgM production) or 14 days (for IgE production) at 37° C. Culture supernatants were collected for IgM, IgG, and IgE analysis following Bethyl Laboratory's protocol (#E80-104, #E80-100, #E80-108, Montgomery, Tex.).

Sequence of Btk kinase (Q06187 whole entry): as above

- Kd [1]: 0.408 nM
- off rate ([1]; Biacore): very slow
- kon ([1]; read-out: Biacore Ka): 886000 M⁻¹ s⁻¹
- CL ([2]; 1.0 mg/kg (iv)): high
- Oral Bioavailability ([2]; 1.0 (iv), 1.0 (po) mg/kg): low
- clearance ([2]; plasma, 1.0 mg/kg (iv)): 28.3 mL/min/kg
- bioavailability ([2]; plasma, 1 mg/kg, 1.0 (iv), 1.0 (po) mg/kg): 1.5%
- CL ([3]; 1.0 mg/kg (iv)): high
- Oral Bioavailability ([3]; 1.0 (iv), 2.0 (po) mg/kg): low
- clearance ([3]; plasma, 1.0 mg/kg (iv)): 75.8 mL/min/kg
- bioavailability ([3]; plasma, 2 mg/kg, 1.0 (iv), 2.0 (po) mg/kg): 2%
- Btk inhibitor potency (FRET) [5]: very potent
- IC50 ([5]; inactivated state of BTK, 18-24 h at 14° C.): 0.4 nM
- CL ([6]; 0.3 mg/kg (iv)): high
- Oral Bioavailability ([6]; 0.3 (iv), 0.9 (po) mg/kg): low
- bioavailability ([6]; cynomolgus monkey, plasma, 0.9 mg/kg, 0.3 (iv), 0.9 (po) mg/kg): 8%
- clearance ([6]; cynomolgus monkey, plasma, 0.3 mg/kg (iv)): 38.9 mL/min/kg
- CL ([7]; 1.0 mg/kg (iv)): moderate
- Oral Bioavailability ([7]; 1.0 (iv), 10 (po) mg/kg): low
- clearance ([7]; plasma, 1.0 mg/kg (iv)): 26 mL/min/kg
- bioavailability ([7]; plasma, 10 mg/kg, 1.0 (iv), 10 (po) mg/kg): 12%
- IC50 ([9]; 240 h, 10 days culture, read-out: IC50 IgG production): 4.15 nM
- IC50 ([9]; 240 h, 10 days culture, read-out: IC50 IgM production): 1.21 nM
- IC50 ([9]; 336 h, 14 days culture, read-out: IC50 IgE production): 1.47 nM
SMILES: CN1CCC(c2ccc(Nc3cc(-c4ccnc(-n5ncc6cc(C(C)(C)C)cc(F)c6c5=O)c4CO)nn(C)c3=O)nc2)CC1 [Compound 1, 6-tert-Butyl-8-fluoro-2-{3-hydroxymethyl-4-[1-methyl-5-(1′-methyl-1′,2′,3′,4′,5′,6′-hexahydro-[3,4′]bipyridinyl-6-ylamino)-6-oxo-1,6-dihydro-pyridazin-3-yl]-pyridin-2-yl}-2H-phthalazin-1-one]
- % reduction in airway neutrophilia ([4]; delivered dose 0.09 mg/kg, deposited dose .003 mg/kg, mPolyIC-3-12): 17%
- % reduction in airway neutrophilia ([4]; delivered dose 0.27 mg/kg, deposited dose .010 mg/kg, mPolyIC-3-12): 22%
- % reduction in airway neutrophilia ([4]; delivered dose 0.81 mg/kg, deposited dose .030 mg/kg, mPolyIC-3-12): 67* %
- % reduction in airway neutrophilia ([4]; delivered dose 8.6 mg/kg, deposited dose 0.3 mg/kg, mPolyIC-5-12): 83* %
- poly I:C-induced airway neutrophilia ([4]; dose-dependent): inhibited
- levels of neutrophil chemoattractants in the lavage fluid ([4]; mouse, in vivo): reductions
- % reduction in airway resistance (R) ([8]; Inhaled, delivered dose 1.0 mg/kg, deposited dose 0.03 mg/kg, mOVA36): 44%
- % reduction in airway resistance (R) ([8]; Inhaled, delivered dose 2.7 mg/kg, deposited dose 0.1 mg/kg, mOVA36): 59* %
- % reduction in airway resistance (R) ([8]; Inhaled, delivered dose 8.6 mg/kg, deposited dose 0.3 mg/kg, mOVA36): 86* %
- % reduction in airway resistance (R) ([8]; Intranasal, delivered dose 0.3 mg/kg, deposited dose 0.3 mg/kg): 85* %
- OVA-induced increase in R ([8]; administered i.n. or delivered as a dry powder formulation by inhalation): effectively inhibited
- reduction of levels of IgM, IgG, and IgE in the supernatant, efficacy ([9]; concentration dependent): up to 100%
